According to publication PMC7294993 (Science signaling, 2020):

Assays:
MRCKA (CDC42BPA) = MRCKA (CDC42BPA) (Homo sapiens, UniProt Q5VT25); assay: in vitro radioisotope […] kinase assay, 10-dose; format: biochemical
MRCKB (CDC42BPB) = MRCKB (CDC42BPB) (Homo sapiens, UniProt Q9Y5S2); assay: in vitro radioisotope […] kinase assay, 10-dose; format: biochemical
MRCKB (CDC42BPB), sequence (Q9Y5S2 whole entry): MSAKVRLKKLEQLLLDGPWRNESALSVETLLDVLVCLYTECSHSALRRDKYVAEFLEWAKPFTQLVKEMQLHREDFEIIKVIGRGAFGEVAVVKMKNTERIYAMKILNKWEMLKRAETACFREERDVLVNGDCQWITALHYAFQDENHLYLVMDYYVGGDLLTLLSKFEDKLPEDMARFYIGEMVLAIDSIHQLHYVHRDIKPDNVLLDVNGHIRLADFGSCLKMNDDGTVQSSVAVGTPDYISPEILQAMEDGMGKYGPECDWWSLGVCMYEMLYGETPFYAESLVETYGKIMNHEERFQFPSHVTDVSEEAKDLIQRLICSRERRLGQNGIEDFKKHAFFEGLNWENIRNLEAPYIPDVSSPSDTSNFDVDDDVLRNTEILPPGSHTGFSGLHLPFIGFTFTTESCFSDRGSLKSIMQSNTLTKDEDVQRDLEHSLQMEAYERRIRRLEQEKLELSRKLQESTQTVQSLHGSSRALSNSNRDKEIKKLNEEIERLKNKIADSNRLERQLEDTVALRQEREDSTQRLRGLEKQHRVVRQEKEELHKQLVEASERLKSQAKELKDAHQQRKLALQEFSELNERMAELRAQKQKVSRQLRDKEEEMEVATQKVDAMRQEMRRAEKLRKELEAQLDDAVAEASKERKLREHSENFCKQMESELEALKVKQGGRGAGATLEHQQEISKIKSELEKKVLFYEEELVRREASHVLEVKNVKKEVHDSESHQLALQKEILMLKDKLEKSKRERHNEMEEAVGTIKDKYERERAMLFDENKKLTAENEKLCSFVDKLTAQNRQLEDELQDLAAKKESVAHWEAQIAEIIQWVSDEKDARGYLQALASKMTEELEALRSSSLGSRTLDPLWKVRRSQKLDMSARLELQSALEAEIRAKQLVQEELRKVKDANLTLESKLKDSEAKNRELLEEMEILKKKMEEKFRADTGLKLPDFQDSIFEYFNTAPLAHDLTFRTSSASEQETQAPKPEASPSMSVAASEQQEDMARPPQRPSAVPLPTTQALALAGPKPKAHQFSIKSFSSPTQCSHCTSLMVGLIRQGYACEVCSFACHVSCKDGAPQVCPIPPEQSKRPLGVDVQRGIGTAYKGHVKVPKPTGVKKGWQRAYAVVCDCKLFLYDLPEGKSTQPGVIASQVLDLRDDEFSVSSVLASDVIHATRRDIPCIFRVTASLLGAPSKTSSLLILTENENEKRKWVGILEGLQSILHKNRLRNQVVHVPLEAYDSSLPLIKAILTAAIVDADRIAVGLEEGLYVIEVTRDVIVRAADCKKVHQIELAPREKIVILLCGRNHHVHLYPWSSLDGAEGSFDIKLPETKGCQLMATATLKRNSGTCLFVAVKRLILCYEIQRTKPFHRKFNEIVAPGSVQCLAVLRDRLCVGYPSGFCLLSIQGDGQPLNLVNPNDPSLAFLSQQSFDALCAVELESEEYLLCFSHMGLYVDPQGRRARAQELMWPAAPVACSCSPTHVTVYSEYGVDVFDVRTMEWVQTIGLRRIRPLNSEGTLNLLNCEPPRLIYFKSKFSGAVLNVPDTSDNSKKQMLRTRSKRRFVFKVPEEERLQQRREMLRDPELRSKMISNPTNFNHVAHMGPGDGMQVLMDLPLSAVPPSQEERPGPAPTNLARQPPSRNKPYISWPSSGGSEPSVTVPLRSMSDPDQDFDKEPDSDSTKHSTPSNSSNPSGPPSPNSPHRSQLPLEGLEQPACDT

MRCKA (CDC42BPA), sequence (Q5VT25 whole entry): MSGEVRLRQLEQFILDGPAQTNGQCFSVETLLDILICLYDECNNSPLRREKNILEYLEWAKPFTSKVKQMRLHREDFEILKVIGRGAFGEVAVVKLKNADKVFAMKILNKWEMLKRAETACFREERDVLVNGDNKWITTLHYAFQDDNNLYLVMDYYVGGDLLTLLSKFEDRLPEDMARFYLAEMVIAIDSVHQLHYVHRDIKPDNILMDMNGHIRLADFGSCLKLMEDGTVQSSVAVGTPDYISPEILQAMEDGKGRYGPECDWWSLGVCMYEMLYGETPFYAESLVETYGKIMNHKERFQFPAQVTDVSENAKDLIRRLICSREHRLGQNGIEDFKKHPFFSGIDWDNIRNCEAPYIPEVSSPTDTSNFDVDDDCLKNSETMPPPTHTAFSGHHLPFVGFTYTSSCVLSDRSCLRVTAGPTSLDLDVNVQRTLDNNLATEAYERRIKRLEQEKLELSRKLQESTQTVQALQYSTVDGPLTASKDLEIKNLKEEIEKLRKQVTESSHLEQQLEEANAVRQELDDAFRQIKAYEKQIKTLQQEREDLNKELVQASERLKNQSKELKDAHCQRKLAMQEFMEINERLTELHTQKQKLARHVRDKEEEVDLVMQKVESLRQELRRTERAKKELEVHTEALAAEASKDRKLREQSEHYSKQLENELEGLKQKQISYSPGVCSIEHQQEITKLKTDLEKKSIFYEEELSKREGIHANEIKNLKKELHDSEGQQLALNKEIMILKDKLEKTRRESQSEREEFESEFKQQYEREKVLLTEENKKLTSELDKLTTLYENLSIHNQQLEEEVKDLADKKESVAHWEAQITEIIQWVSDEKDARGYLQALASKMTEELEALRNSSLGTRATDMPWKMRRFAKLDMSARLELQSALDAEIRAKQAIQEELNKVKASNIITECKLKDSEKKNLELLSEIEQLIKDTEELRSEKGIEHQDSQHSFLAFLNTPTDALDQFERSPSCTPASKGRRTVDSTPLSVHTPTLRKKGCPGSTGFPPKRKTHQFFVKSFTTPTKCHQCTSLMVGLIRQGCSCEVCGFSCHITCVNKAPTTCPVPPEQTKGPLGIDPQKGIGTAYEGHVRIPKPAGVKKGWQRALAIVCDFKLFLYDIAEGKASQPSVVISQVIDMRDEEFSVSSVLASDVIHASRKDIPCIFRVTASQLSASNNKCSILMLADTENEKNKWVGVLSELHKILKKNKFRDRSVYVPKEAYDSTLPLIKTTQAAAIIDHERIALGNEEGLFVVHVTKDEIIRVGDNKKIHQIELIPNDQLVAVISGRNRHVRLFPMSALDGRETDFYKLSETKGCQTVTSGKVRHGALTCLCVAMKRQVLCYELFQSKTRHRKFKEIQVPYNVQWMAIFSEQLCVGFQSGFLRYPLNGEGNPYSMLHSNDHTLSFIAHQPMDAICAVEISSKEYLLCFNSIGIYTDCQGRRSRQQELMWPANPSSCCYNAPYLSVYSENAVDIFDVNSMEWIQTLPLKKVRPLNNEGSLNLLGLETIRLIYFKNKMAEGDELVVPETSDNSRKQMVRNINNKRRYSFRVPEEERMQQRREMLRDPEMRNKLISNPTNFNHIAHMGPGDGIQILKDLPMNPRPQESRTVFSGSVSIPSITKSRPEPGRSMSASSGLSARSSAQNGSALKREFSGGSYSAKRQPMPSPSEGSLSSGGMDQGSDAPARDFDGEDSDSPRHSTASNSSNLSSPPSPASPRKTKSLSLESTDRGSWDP

EC50 (MRCKA (CDC42BPA)): 0.065 µM
EC50 (MRCKB (CDC42BPB)): 0.072 µM
Substance: BDP9066
